Type in all cases: cell-based, human
For assay [1], the system named is PBMC from allergic donors. Put plainly: Dual ELISPOT, total IL-5 and IFN-γ response (SFC). To be noted: sum of IFNg and IL-5. On the procedure: (§1) Spots were counted by computer-assisted image analysis (Zeiss, KS-ELISPOT reader, Munich, Germany).
(§2) Each assay was performed in triplicate. The level of statistical significance was determined with a Student's t-test using the mean of triplicate values of the response against relevant pools or individual peptides versus the response against the DMSO control.

The subject of assay [2] is PBMC from allergic donors. Put plainly: IFN-γ ELISPOT with extract-stimulated short-term lines. Particulars: positive donor/peptide response. On the procedure: as §1, §2
For assay [3], the system named is PBMC from allergic donors. Put plainly: IL-5 ELISPOT with extract-stimulated short-term lines. To be noted: positive donor/peptide response. On the procedure:
as §1, §2

Values joined by “and” are separate entries in the source; they are usually repeats but may differ in a detail not shown here. Equal values may be shown once.

In the case of 3324.0100 (MLTLFILIITSTIKA), the “Response (SFC/10^6) Total” value in assay [1] (each table line is one donor) was 63 SFC/10^6 and 167 SFC/10^6. In addition, in assay [2] (each table line is one donor), the “Response (SFC/10^6) IFNg” value is 63 SFC/10^6 and 167 SFC/10^6.

Consider 3324.0103 (IAKVPPGPNITATYG), for which the “Response (SFC/10^6) Total” value in assay [1] (one donor per table line) was 153 SFC/10^6 and 223 SFC/10^6 and 267 SFC/10^6. Besides, the “Response (SFC/10^6) IFNg” value in assay [2] (one donor per table line) is 153 SFC/10^6 and 223 SFC/10^6 and 267 SFC/10^6.

Take 3324.0372 (PAKNIYSFNEIVALW): the “Response (SFC/10^6) Total” value in assay [1] (one donor per table line) amounted to 67 SFC/10^6. Further, the “Response (SFC/10^6) IFNg” value in assay [2] (one donor per table line) worked out at 67 SFC/10^6.

As to 3324.0379 (TNFEIEASFGVEASE), the “Response (SFC/10^6) Total” value in assay [1] (one donor per table line) was 1113 SFC/10^6. In addition, the “Response (SFC/10^6) IFNg” value in assay [2] (one donor per table line) is on record as 1113 SFC/10^6.

With 3324.0380 (VILAINHSVFVKGDH), the “Response (SFC/10^6) Total” value in assay [1] (one donor per table line) was 1410 SFC/10^6. The “Response (SFC/10^6) IFNg” value in assay [2] (one donor per table line) is 1410 SFC/10^6.

As to 3324.0384 (VKAFKQVDVVISTVG), the “Response (SFC/10^6) Total” value in assay [1] (one donor per table line) amounted to 1007 SFC/10^6. Also, the “Response (SFC/10^6) IFNg” value in assay [2] (one donor per table line) is recorded as 1007 SFC/10^6.

With 3324.0630 (LVATSAISLHMQEAG), the “Response (SFC/10^6) Total” value in assay [1] (one donor per table line) worked out at 83 SFC/10^6. The “Response (SFC/10^6) IFNg” value in assay [2] (one donor per table line) is listed as 83 SFC/10^6.

Turning to 3324.0633 (MLAVVAVVLASMVGG), the “Response (SFC/10^6) Total” value in assay [1] (one donor per table line) stood at 227 SFC/10^6. Also, the “Response (SFC/10^6) IFNg” value in assay [2] (one donor per table line) was 227 SFC/10^6.

For 3324.0639 (TVWAQSAAFPAFKPE), the “Response (SFC/10^6) Total” value in assay [1] (one donor per table line) was 463 SFC/10^6 and 100 SFC/10^6. Besides, the “Response (SFC/10^6) IFNg” value in assay [2] (one donor per table line) is 463 SFC/10^6 and 100 SFC/10^6.

3324.0652 (LRTLGSTSADEVQRM): the “Response (SFC/10^6) Total” value in assay [1] (one donor per table line) stood at 113 SFC/10^6. In addition, in assay [2] (one donor per table line), the “Response (SFC/10^6) IFNg” value was found to be 113 SFC/10^6.

In the case of 3324.0894 (NGKLHLSLIDPSTLS), the “Response (SFC/10^6) Total” value in assay [1] (one donor per table line) was determined as 460 SFC/10^6. The “Response (SFC/10^6) IFNg” value in assay [2] (one donor per table line) was 460 SFC/10^6.

For the compound 3324.0914 (FAFGYFNGRILGVCP), the “Response (SFC/10^6) Total” value in assay [1] (one donor per table line) stood at 133 SFC/10^6. The “Response (SFC/10^6) IFNg” value in assay [2] (one donor per table line) amounted to 133 SFC/10^6.

On to 3324.0918 (NAMDEIIKSTDAEPA), for which the “Response (SFC/10^6) Total” value in assay [1] (one donor per table line) is on record as 260 SFC/10^6. In addition, the “Response (SFC/10^6) IFNg” value in assay [2] (one donor per table line) was determined as 260 SFC/10^6.

For the compound 3324.0922 (TGLPLMYKFGDNLVV), in assay [1] (one donor per table line), the “Response (SFC/10^6) Total” value is on record as 247 SFC/10^6. Further, the “Response (SFC/10^6) IFNg” value in assay [2] (one donor per table line) was determined as 247 SFC/10^6.

3324.1133 (MASSSSVLLVVALFA): in assay [1] (one donor per table line), the “Response (SFC/10^6) Total” value is recorded as 53 SFC/10^6. Also, in assay [2] (one donor per table line), the “Response (SFC/10^6) IFNg” value is 53 SFC/10^6.

Take 3324.1145 (LRKYGIAAENVIDVK): the “Response (SFC/10^6) Total” value in assay [1] (each table line is one donor) was found to be 50 SFC/10^6. In assay [2] (each table line is one donor), the “Response (SFC/10^6) IFNg” value worked out at 50 SFC/10^6.

For the compound 3324.1151 (NEMSWIESIPFVHLG), the “Response (SFC/10^6) Total” value in assay [1] (each table line is one donor) stood at 1933 SFC/10^6. In addition, in assay [2] (each table line is one donor), the “Response (SFC/10^6) IFNg” value was determined as 1933 SFC/10^6.

3324.1152 (FPHRKGVLFNIQYVN): the “Response (SFC/10^6) Total” value in assay [1] (each table line is one donor) is reported as 100 SFC/10^6. Moreover, the “Response (SFC/10^6) IFNg” value in assay [2] (each table line is one donor) was found to be 100 SFC/10^6.

Take 3324.1159 (PENFAVVDLNQMRAV): the “Response (SFC/10^6) Total” value in assay [1] (each table line is one donor) was 75 SFC/10^6. The “Response (SFC/10^6) IFNg” value in assay [2] (each table line is one donor) is recorded as 75 SFC/10^6.

For the compound 3324.1166 (HTVALFLAVALVAGP), the “Response (SFC/10^6) Total” value in assay [1] (each table line is one donor) stood at 53 SFC/10^6. Moreover, in assay [2] (each table line is one donor), the “Response (SFC/10^6) IFNg” value turned out to be 53 SFC/10^6.

On to 3324.1169 (DAALKLAYEAAQGAT), for which the “Response (SFC/10^6) Total” value in assay [1] (each table line is one donor) amounted to 120 SFC/10^6. For the same compound, the “Response (SFC/10^6) IFNg” value in assay [2] (each table line is one donor) stood at 120 SFC/10^6.

Turning to 3324.1171 (KTFVETFGTATNKAF), the “Response (SFC/10^6) Total” value in assay [1] (each table line is one donor) was 73 SFC/10^6. Moreover, in assay [2] (each table line is one donor), the “Response (SFC/10^6) IFNg” value is 73 SFC/10^6.

With 3324.1177 (AAVKQAYAAKQATAP), the “Response (SFC/10^6) Total” value in assay [1] (each table line is one donor) was 43 SFC/10^6. In assay [2] (each table line is one donor), the “Response (SFC/10^6) IFNg” value was determined as 43 SFC/10^6.

For the compound 3324.1180 (PEAKYDAYVATLTEA), in assay [1] (each table line is one donor), the “Response (SFC/10^6) Total” value came to 227 SFC/10^6. In addition, in assay [2] (each table line is one donor), the “Response (SFC/10^6) IFNg” value is 227 SFC/10^6.

As to 3324.1443 (DAAYRVAYEAAEGST), in assay [1] (each table line is one donor), the “Response (SFC/10^6) Total” value was determined as 70 SFC/10^6. Also, the “Response (SFC/10^6) IFNg” value in assay [2] (each table line is one donor) worked out at 70 SFC/10^6.

For 3324.1636 (FFSANAAALASRKSS), in assay [1] (each table line is one donor), the “Response (SFC/10^6) Total” value was 93 SFC/10^6. The “Response (SFC/10^6) IFNg” value in assay [2] (each table line is one donor) stood at 93 SFC/10^6.

3324.1647 (SLATLQSLESIVGKD): the “Response (SFC/10^6) Total” value in assay [1] (each table line is one donor) is recorded as 228 SFC/10^6. Further, the “Response (SFC/10^6) IFNg” value in assay [2] (each table line is one donor) came to 228 SFC/10^6.

As for 3324.1653 (FDLYFSMARGNASLP), the “Response (SFC/10^6) Total” value in assay [1] (each table line is one donor) was found to be 343 SFC/10^6. In addition, the “Response (SFC/10^6) IFNg” value in assay [2] (each table line is one donor) is reported as 343 SFC/10^6.

Take 3337.0006 (KQEDDGLCYEGTNCG): the “Response (SFC/10^6) Total” value in assay [1] (each table line is one donor) was 123 SFC/10^6. Also, the “Response (SFC/10^6) IFNg” value in assay [2] (each table line is one donor) amounted to 123 SFC/10^6.

For the compound `CSCC[C@H](NC(=O)[C@H](Cc1ccccc1)NC(=O)[C@H](C)N)C(=O)N[C@@H](CC(C)C)C(=O)N[C@@H](C)C(=O)N[C@@H](Cc1c[nH]c2ccccc12)C(=O)N[C@@H](CC(N)=O)C(=O)N[C@@H](Cc1ccc(O)cc1)C(=O)NCC(=O)N[C@H](C(=O)N1CCC[C@H]1C(=O)N[C@@H](CCCNC(=N)N)C(=O)N[C@H](C(=O)N[C@@H](CCSC)C(=O)N[C@@H](CO)C(=O)O)C(C)C)C(C)C` [3324.0977], the “Response (SFC/10^6) Total” value in assay [1] (one donor per table line) was 1413 SFC/10^6 and 157 SFC/10^6. For the same compound, the “Response (SFC/10^6) IL-5” value in assay [3] (one donor per table line) was 1413 SFC/10^6 and 157 SFC/10^6.

`CC[C@H](C)[C@H](NC(=O)[C@H](C)NC(=O)[C@@H](NC(=O)[C@H](Cc1ccccc1)NC(=O)[C@H](C)NC(=O)[C@H](CCCNC(=N)N)NC(=O)[C@H](CC(N)=O)NC(=O)CNC(=O)[C@H](CCCNC(=N)N)NC(=O)[C@H](CO)NC(=O)[C@H](Cc1ccccc1)NC(=O)[C@H](C)NC(=O)[C@@H](NC(=O)[C@H](CCC(N)=O)NC(=O)[C@@H](N)Cc1ccc(O)cc1)[C@@H](C)CC)[C@@H](C)CC)C(=O)O` [3324.0980]: the “Response (SFC/10^6) Total” value in assay [1] (one donor per table line) was 177 SFC/10^6 and 380 SFC/10^6. The “Response (SFC/10^6) IL-5” value in assay [3] (one donor per table line) was 177 SFC/10^6 and 380 SFC/10^6.

Turning to `CC[C@H](C)[C@H](N)C(=O)N[C@H](C(=O)N[C@@H](CC(C)C)C(=O)N[C@@H](CC(N)=O)C(=O)N[C@@H](Cc1c[nH]cn1)C(=O)N[C@@H](CCSC)C(=O)N[C@H](C(=O)NCC(=O)N[C@@H](C)C(=O)N[C@@H](CCC(N)=O)C(=O)N[C@@H](CO)C(=O)NCC(=O)N[C@@H](CCCCN)C(=O)NCC(=O)N[C@H](C(=O)O)[C@@H](C)O)[C@@H](C)O)C(C)C` [3324.0987], the “Response (SFC/10^6) Total” value in assay [1] (one donor per table line) worked out at 507 SFC/10^6. Besides, the “Response (SFC/10^6) IL-5” value in assay [3] (one donor per table line) was 507 SFC/10^6.

With `CC[C@H](C)[C@H](N)C(=O)N[C@@H](CCCCN)C(=O)N[C@@H](CO)C(=O)N[C@@H](CC(=O)O)C(=O)N[C@@H](CCCCN)C(=O)N1CCC[C@H]1C(=O)N[C@@H](CC(C)C)C(=O)N[C@@H](CCCCN)C(=O)NCC(=O)N1CCC[C@H]1C(=O)N[C@@H](Cc1ccccc1)C(=O)N[C@@H](CC(N)=O)C(=O)N[C@@H](Cc1ccccc1)C(=O)N[C@@H](CCCNC(=N)N)C(=O)N[C@@H](Cc1ccccc1)C(=O)O` [3324.1140], the “Response (SFC/10^6) Total” value in assay [1] (each table line is one donor) worked out at 317 SFC/10^6. Besides, the “Response (SFC/10^6) IL-5” value in assay [3] (each table line is one donor) is recorded as 317 SFC/10^6.

In the case of `CC[C@H](C)[C@H](NC(=O)[C@H](Cc1ccccc1)NC(=O)[C@H](CCCCN)NC(=O)[C@H](Cc1ccc(O)cc1)NC(=O)[C@H](CO)NC(=O)[C@@H](N)CC(=O)O)C(=O)N1CCC[C@H]1C(=O)N[C@H](C(=O)N[C@@H](CC(C)C)C(=O)N[C@H](C(=O)N[C@@H](C)C(=O)N[C@@H](C)C(=O)N[C@H](C(=O)N[C@@H](CCCCN)C(=O)N[C@@H](CCC(N)=O)C(=O)O)C(C)C)C(C)C)[C@@H](C)O` [3324.1165], the “Response (SFC/10^6) Total” value in assay [1] (each table line is one donor) is 382 SFC/10^6 and 78 SFC/10^6. Further, the “Response (SFC/10^6) IL-5” value in assay [3] (each table line is one donor) was 382 SFC/10^6 and 78 SFC/10^6.

These data come from patent publication US10918713B2, “Epitopes from allergen proteins and methods and uses for immune response modulation” (LA JOLLA INSTITUTE FOR ALLERGY AND IMMUNOLOGY, priority 2012, dated 2021).
